Test results taken from patent US8895549B2, “Aminoalcohol substituted 2,3-dihydroimidazo[1,2-c]quinazoline derivatives useful for treating hyper-proliferative disorders and diseases associated with angiogenesis” (Bayer Intellectual Property GmbH, priority 2010, dated 2014).
Structures can show the parent of a compound that is named as a salt.

How the values were obtained:
[1] = target: PI3Kα (complex of human p110α and human p85α) (Homo sapiens (Human), UniProt P42336); test: PI3Kα kinase assay (HTRF-based PI3K inhibition assay); type: biochemical; settings: for inhibition at 0.93 µM: 0.93 μM compound, read-out: PI3K alpha average % Inhibition at 0.93 μM; for IC50: 10 μM ATP, 10 μM PIP2, 20 min at 22° C., read-out: average IC50 in the PI3K alpha biochemical assay;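 as to all read-outs here: PIP3 product detected by HTRF, reading resonance energy transfer from Europium-labeled anti-GST antibody to Streptavidin-APC, as displacement of biotinylated PIP3 tracer from the GST-PH domain complex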
Description: (§1) Determination of % Inhibition and IC50 Values of Compounds in PI3Kα Kinase Assay
PI3Kα inhibitory activity of compounds of the present invention was quantified employing the HTRF-based PI3K inhibition assay as described below.
(§2) As reagents for the kinase reaction itself and the quantification of the reaction product, the PI3-Kinase HTRF Assay kit from Millipore (#33-017) was used. With this kit the phosphatidylinositol 3,4,5-trisphosphate (PIP3) generated in the kinase reaction is detected by displacement of a biotinylated ligand from an energy transfer complex consisting of a Europium-labeled anti-GST monoclonal antibody, a GST-tagged PH domain, biotinylated PIP3 and Streptavidin-Allophycocyanin (APC).
For the assay 50 nL of a 80-fold concentrated solution of the test compound in DMSO was pipetted into a black low volume 384-well microtiter plate (Greiner Bio-One, Frickenhausen, Germany), 3 μL of a solution of PI3Kα and phosphatidylinositol-4,5-bisphosphate (PIP2, 13.8 μM=> final conc. in 4 μl reaction volume=10 μM) in 1× reaction buffer (exact composition not disclosed by the vendor) were added and the mixture was incubated for 15 min at 22° C. to allow pre-binding of the test compounds to the enzyme before the start of the kinase reaction. The amount of PI3Kα was chosen to have the enzyme reaction in the linear range and depended on the activity of the individual lot, typical concentrations in assay were in the range of 90 ng/mL. Then the kinase reaction was started by the addition of 1 μL of a solution of adenosine triphosphate (ATP, 40 μM=> final conc. in the 4 μL assay volume is 10 μM) in reaction buffer and the resulting mixture was incubated for a reaction time of 20 min at 22° C.
The reaction was stopped by the addition of 1 μL of an stop solution (containing the biotinylated PIP3 used as a tracer), then 1 μL detection mix (containing a Europium-labeled anti-GST monoclonal antibody, a GST-tagged PH domain, and Streptavidin-Allophycocyanin) was added and resulting mixture was incubated 3 h at 22° C. to allow the formation of complexes between the detection reagents and either the PIP3 generated in the kinase reaction, or the biotinylated PIP3 added with the stop solution. Subsequently, the amount of energy transfer complex consisting of a Europium-labeled anti-GST monoclonal antibody, a GST-tagged PH domain, biotinylated PIP3 and Streptavidin-Allophycocyanin (APC) was evaluated by measurement of the resonance energy transfer from the Europium-labeled anti-GST monoclonal antibody to the Streptavidin-Allophycocyanin. Therefore, the fluorescence emissions at 620 nm and 665 nm after excitation at 350 nm were measured using a TR-FRET reader, e.g., a Pherastar (BMG Labtechnologies, Offenburg, Germany) or a Viewlux (Perkin-Elmer). The ratio of the emissions at 665 nm and at 622 nm was taken as the measure for the amount of biotinylated PIP3 bound to the GST-tagged PH domain, which is negatively correlated with the amount of PIP3 generated.

[2] = target: PI3Kβ (complex of human p110β and human p85α) (Homo sapiens (Human), UniProt P42338); test: PI3Kβ kinase assay (HTRF-based PI3K inhibition assay); type: biochemical; settings: for inhibition at 0.93 µM: 0.93 μM compound, read-out: PI3K beta average % Inhibition at 0.93 μM; for IC50: 10 μM ATP, 10 μM PIP2, 20 min at 22° C., read-out: average IC50 in the PI3K beta biochemical assay; for PI3K beta average IC50/PI3K alpha average IC50: ratio of beta IC50 to alpha IC50;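 as to all read-outs here: Kinase-made PIP3 detected by HTRF, displacing biotinylated PIP3 tracer from a complex of Europium anti-GST antibody, GST-fused PH domain and Streptavidin-APC, read as Europium-to-APC energy transfer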
Chain of PI3Kβ (complex of human p110β and human p85α) (P42338 whole entry, the tested form may be a part): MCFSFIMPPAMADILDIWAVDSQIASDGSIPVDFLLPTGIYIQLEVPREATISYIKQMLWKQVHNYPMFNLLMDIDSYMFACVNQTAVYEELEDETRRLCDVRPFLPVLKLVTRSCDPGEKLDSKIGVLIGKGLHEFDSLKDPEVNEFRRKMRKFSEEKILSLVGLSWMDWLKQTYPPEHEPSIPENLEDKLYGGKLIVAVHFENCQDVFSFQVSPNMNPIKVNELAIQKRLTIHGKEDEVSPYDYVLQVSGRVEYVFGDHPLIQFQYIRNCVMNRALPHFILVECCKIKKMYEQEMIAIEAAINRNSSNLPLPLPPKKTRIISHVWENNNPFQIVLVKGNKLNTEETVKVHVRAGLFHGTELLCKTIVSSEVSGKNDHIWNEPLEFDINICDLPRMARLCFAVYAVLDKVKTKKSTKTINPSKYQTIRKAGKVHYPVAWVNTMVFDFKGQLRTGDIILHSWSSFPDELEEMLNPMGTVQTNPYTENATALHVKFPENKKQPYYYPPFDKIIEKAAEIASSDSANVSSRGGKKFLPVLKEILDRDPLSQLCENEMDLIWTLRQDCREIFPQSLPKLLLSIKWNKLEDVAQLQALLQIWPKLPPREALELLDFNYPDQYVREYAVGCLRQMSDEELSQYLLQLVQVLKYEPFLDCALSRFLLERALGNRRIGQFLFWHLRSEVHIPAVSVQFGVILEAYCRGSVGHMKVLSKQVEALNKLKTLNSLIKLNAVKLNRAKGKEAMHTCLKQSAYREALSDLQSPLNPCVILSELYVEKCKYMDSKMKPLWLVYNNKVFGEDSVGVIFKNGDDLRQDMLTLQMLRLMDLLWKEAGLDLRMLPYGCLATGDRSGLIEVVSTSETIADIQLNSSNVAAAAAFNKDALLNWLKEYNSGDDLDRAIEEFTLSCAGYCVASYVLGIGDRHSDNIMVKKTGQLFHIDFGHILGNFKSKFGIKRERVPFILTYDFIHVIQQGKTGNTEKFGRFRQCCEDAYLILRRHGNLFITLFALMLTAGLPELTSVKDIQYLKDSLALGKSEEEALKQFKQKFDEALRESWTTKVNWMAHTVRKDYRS
Chain of PI3Kβ (complex of human p110β and human p85α) (P27986 whole entry partner, the tested form may be a part): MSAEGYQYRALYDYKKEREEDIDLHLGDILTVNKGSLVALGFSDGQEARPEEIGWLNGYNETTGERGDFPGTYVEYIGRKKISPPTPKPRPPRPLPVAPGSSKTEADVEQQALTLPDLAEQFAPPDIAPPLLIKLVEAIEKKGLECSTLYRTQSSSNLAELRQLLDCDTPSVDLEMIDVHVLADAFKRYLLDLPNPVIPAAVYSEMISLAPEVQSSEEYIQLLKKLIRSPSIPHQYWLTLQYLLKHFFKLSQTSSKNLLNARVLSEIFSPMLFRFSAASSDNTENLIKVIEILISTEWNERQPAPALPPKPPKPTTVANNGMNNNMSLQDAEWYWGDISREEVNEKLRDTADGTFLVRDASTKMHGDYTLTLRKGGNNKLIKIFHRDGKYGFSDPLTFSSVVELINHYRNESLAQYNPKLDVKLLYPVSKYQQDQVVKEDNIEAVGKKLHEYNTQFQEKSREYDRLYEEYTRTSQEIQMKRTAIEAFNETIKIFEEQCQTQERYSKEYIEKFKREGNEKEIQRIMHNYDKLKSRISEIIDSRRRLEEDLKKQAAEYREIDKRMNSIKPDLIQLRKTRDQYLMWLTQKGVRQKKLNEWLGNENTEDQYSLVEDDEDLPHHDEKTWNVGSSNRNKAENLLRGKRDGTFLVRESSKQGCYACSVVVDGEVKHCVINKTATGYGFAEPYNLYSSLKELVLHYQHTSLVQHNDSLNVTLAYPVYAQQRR
Description: as §1
PI3Kα inhibitory activity of compounds of the present invention was quantified employing the HTRF based PI3K inhibition assay as described below.
as §2
For the assay 50 nL of a 80-fold concentrated solution of the test compound in DMSO was pipetted into a black low volume 384-well microtiter plate (Greiner Bio-One, Frickenhausen, Germany), 3 μl of a solution of PI3Kβ and phosphatidylinositol-4,5-bisphosphate (PIP2, 13.8 μM=> final conc. in 4 μl reaction volume=10 μM) in 1× reaction buffer (exact composition not disclosed by the vendor) were added and the mixture was incubated for 15 min at 22° C. to allow pre-binding of the test compounds to the enzyme before the start of the kinase reaction. The amount of PI3Kβ was chosen to have the enzyme reaction in the linear range and depended on the activity of the individual lot, typical concentrations in assay were in the range of 120 ng/mL. Then the kinase reaction was started by the addition of 1 μL of a solution of adenosine triphosphate (ATP, 40 μM=> final conc. in the 4 μl assay volume is 10 μM) in reaction buffer and the resulting mixture was incubated for a reaction time of 20 min at 22° C.
The reaction was stopped by the addition of 1 μL of an stop solution (containing the biotinylated PIP3 used as a tracer). Then 1 μL detection mix (containing a Europium-labeled anti-GST monoclonal antibody, a GST-tagged PH domain, and Streptavidin-Allophycocyanin) was added and resulting mixture was incubated for 3 h at 22° C. to allow the formation of complexes between the detection reagents and either the PIP3 generated in the kinase reaction, or the biotinylated PIP3 added with the stop solution. Subsequently the amount of energy transfer complex consisting of a Europium-labeled anti-GST monoclonal antibody, a GST-tagged PH domain, biotinylated PIP3 and Streptavidin-Allophycocyanin (APC) was evaluated by measurement of the resonance energy transfer from the Europium-labeled anti-GST monoclonal antibody to the Streptavidin-Allophycocyanin. Therefore, the fluorescence emissions at 620 nm and 665 nm after excitation at 350 nm were measured using a TR-FRET reader, e.g., a Pherastar (BMG Labtechnologies, Offenburg, Germany) or a Viewlux (Perkin-Elmer). The ratio of the emissions at 665 nm and at 622 nm were taken as the measure for the amount of biotinylated PIP3 bound to the GST-tagged PH domain, which is negatively correlated with the amount of PIP3 generated.

Chain of PI3Kα (complex of human p110α and human p85α) (P42336 whole entry, the tested form may be a part): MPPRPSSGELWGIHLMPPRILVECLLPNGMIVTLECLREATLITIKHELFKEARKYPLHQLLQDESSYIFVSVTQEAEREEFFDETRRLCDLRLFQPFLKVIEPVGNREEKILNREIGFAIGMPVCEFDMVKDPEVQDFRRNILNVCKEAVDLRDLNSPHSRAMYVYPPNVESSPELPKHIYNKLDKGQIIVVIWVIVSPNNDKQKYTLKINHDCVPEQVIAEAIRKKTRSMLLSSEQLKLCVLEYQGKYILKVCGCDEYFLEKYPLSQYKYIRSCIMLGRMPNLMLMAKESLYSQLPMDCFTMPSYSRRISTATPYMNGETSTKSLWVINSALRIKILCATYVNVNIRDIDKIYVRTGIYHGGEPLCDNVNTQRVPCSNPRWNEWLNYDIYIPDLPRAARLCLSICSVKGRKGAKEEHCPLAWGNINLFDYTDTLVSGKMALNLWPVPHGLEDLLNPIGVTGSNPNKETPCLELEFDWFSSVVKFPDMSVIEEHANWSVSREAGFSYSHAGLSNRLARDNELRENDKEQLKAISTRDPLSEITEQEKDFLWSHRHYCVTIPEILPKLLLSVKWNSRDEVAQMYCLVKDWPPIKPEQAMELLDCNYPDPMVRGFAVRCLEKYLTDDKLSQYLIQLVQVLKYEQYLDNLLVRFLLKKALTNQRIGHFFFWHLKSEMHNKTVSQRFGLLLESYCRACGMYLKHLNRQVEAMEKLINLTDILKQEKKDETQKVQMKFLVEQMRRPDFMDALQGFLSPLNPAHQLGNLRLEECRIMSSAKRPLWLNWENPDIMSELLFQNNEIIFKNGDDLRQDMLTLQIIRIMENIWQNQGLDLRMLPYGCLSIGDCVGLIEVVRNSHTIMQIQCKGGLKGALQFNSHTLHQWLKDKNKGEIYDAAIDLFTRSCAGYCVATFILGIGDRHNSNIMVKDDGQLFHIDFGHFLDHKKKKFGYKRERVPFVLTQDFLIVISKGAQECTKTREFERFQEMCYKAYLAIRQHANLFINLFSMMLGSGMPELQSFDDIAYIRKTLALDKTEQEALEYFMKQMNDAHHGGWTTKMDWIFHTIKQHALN
Chain of PI3Kα (complex of human p110α and human p85α) (P27986 whole entry partner, the tested form may be a part): as the sequence (P27986 whole entry partner, the tested form may be a part) above

SMILES	inhibition at 0.93 µM [1]	IC50 [1]	inhibition at 0.93 µM [2]	IC50 [2]	PI3K beta average IC50/PI3K alpha average IC50 [2]
COc1c(OC[C@H](O)CN2CCCCC2)ccc2c1N=C(NC(=O)c1cccnc1C)N1CCN=C21 [Example 19, N-(8-{[(2R)-2-Hydroxy-3-(piperidin-1-yl)propyl]oxy}-7-methoxy-2,3-dihydroimidazo[1,2-c]quinazolin-5-yl)-2-methylpyridine-3-carboxamide]	103%	< 10 nM	91.2%	10 to 50 nM	2.78
COc1c(OCC(O)CN2CCOCC2)ccc2c1N=C(NC(=O)c1cccnc1)N1CCN=C21 (stereo not drawn) [Comparative Example 1, N-{8-[2-hydroxy-3-(morpholin-4-yl)propoxy]-7-methoxy-2,3-dihydroimidazo[1,2-c]quinazolin-5-yl}pyridine-3-carboxamide, reference compound]	97.4%	–	92.1%	–	–
COc1c(OC[C@H](O)CN2CCCCC2)ccc2c1N=C(NC(=O)c1cncs1)N1CCN=C21 [Example 37, N-(8-{[(2R)-2-Hydroxy-3-(piperidin-1-yl)propyl]oxy}-7-methoxy-2,3-dihydroimidazo[1,2-c]quinazolin-5-yl)-1,3-thiazole-5-carboxamide]	103%	< 10 nM	93.7%	10 to 50 nM	2.98
COc1c(OC[C@H](O)CN2C[C@@H](C)O[C@@H](C)C2)ccc2c1N=C(NC(=O)c1cncs1)N1CCN=C21 [Example 34, N-[8-({(2R)-3-[(2R,6S)-2,6-dimethylmorpholin-4-yl]-2-hydroxypropyl}oxy)-7-methoxy-2,3-dihydroimidazo[1,2-c]quinazolin-5-yl]-1,3-thiazole-5-carboxamide]	94.2%	< 10 nM	97.1%	10 to 50 nM	7.21
COc1c(OC[C@H](O)CN(C)C)ccc2c1N=C(NC(=O)c1cnc(N)nc1)N1CCN=C21 [Example 29, 2-Amino-N-(8-{[(2R)-3-(dimethylamino)-2-hydroxypropyl]oxy}-7-methoxy-2,3-dihydroimidazo[1,2-c]quinazolin-5-yl)pyrimidine-5-carboxamide]	102%	< 10 nM	106%	< 10 nM	6.75
COc1c(OC[C@H](O)CN(C(C)C)C(C)C)ccc2c1N=C(NC(=O)c1cncs1)N1CCN=C21 [Example 41, N-(8-{[(2R)-3-(dipropan-2-ylamino)-2-hydroxypropyl]oxy}-7-methoxy-2,3-dihydroimidazo[1,2-c]quinazolin-5-yl)-1,3-thiazole-5-carboxamide]	95.7%	< 10 nM	99.3%	10 to 50 nM	5.83
COc1c(OC[C@H](O)CN2CCC2)ccc2c1N=C(NC(=O)c1cccnc1C)N1CCN=C21 [Example 16, N-(8-{[(2R)-3-(Azetidin-1-yl)-2-hydroxypropyl]oxy}-7-methoxy-2,3-dihydroimidazo[1,2-c]quinazolin-5-yl)-2-methylpyridine-3-carboxamide]	109%	10 to 50 nM	87.7%	10 to 50 nM	3.94
COc1c(OC[C@H](O)CN2C[C@@H](C)O[C@@H](C)C2)ccc2c1N=C(NC(=O)c1cccnc1)N1CCN=C21 [Example 4, N-[8-({(2R)-3-[(2R,6S)-2,6-dimethylmorpholin-4-yl]-2-hydroxypropyl}oxy)-7-methoxy-2,3-dihydroimidazo[1,2-c]quinazolin-5-yl]pyridine-3-carboxamide]	99.8%	10 to 50 nM	96.4%	> 50 nM	4.85
COc1c(OC[C@H](O)CN(C)C)ccc2c1N=C(NC(=O)c1cccnc1)N1CCN=C21 [Example 11, N-(8-{[(2R)-3-(dimethylamino)-2-hydroxypropyl]oxy}-7-methoxy-2,3-dihydroimidazo[1,2-c]quinazolin-5-yl)pyridine-3-carboxamide]	82%	10 to 50 nM	95.5%	10 to 50 nM	1.60
COc1c(OC[C@H](O)CN2CCOCC2)ccc2c1N=C(NC(=O)c1sc(N)nc1C)N1CCN=C21 [Example 39, 2-Amino-N-(8-{[(2R)-2-hydroxy-3-(morpholin-4-yl)propyl]oxy}-7-methoxy-2,3-dihydroimidazo[1,2-c]quinazolin-5-yl)-4-methyl-1,3-thiazole-5-carboxamide]	110%	< 10 nM	122%	< 10 nM	5.32
COc1c(OC[C@H](O)CN2C[C@@H](C)O[C@@H](C)C2)ccc2c1N=C(NC(=O)c1cccnc1C)N1CCN=C21 [Example 17, N-[8-({(2R)-3-[(2R,6S)-2,6-dimethylmorpholin-4-yl]-2-hydroxypropyl}oxy)-7-methoxy-2,3-dihydroimidazo[1,2-c]quinazolin-5-yl]-2-methylpyridine-3-carboxamide]	109%	< 10 nM	87.2%	10 to 50 nM	5.36
COc1c(OC[C@H](O)CN2CCCC2)ccc2c1N=C(NC(=O)c1cncnc1)N1CCN=C21 [Example 24, N-(8-{[(2R)-2-hydroxy-3-(pyrrolidin-1-yl)propyl]oxy}-7-methoxy-2,3-dihydroimidazo[1,2-c]quinazolin-5-yl)pyrimidine-5-carboxamide]	85.1%	10 to 50 nM	94.7%	10 to 50 nM	1.99
COc1c(OC[C@H](O)CN2CCOCC2)ccc2c1N=C(NC(=O)c1cccnc1)N1CCN=C21 [Example 2, N-(8-{[(2R)-2-hydroxy-3-(morpholin-4-yl)propyl]oxy}-7-methoxy-2,3-dihydroimidazo[1,2-c]quinazolin-5-yl)pyridine-3-carboxamide]	97.6%	–	94.4%	–	–
COc1c(OC[C@H](O)CN2C[C@@H](C)O[C@@H](C)C2)ccc2c1N=C(NC(=O)c1cnc(N)nc1)N1CCN=C21 [Example 27, 2-amino-N-[8-({(2R)-3-[(2R,6S)-2,6-dimethylmorpholin-4-yl]-2-hydroxypropyl}oxy)-7-methoxy-2,3-dihydroimidazo[1,2-c]quinazolin-5-yl]pyrimidine-5-carboxamide]	97.9%	< 10 nM	102%	10 to 50 nM	5.52
COc1c(OC[C@H](O)CN2CCOCC2)ccc2c1N=C(NC(=O)c1cccnc1C)N1CCN=C21 [Example 14, N-(8-{[(2R)-2-Hydroxy-3-(morpholin-4-yl)propyl]oxy}-7-methoxy-2,3-dihydroimidazo[1,2-c]quinazolin-5-yl)-2-methylpyridine-3-carboxamide]	104%	< 10 nM	102%	10 to 50 nM	3.09
COc1c(OC[C@H](O)CN(C(C)C)C(C)C)ccc2c1N=C(NC(=O)c1cccnc1C)N1CCN=C21 [Example 20, N-(8-{[(2R)-3-(dipropan-2-ylamino)-2-hydroxypropyl]oxy}-7-methoxy-2,3-dihydroimidazo[1,2-c]quinazolin-5-yl)-2-methylpyridine-3-carboxamide]	102%	< 10 nM	98.6%	10 to 50 nM	4.20
COc1c(OC[C@H](O)CN(C(C)C)C(C)C)ccc2c1N=C(NC(=O)c1cccnc1)N1CCN=C21 [Example 12, N-(8-{[(2R)-3-(dipropan-2-ylamino)-2-hydroxypropyl]oxy}-7-methoxy-2,3-dihydroimidazo[1,2-c]quinazolin-5-yl)pyridine-3-carboxamide]	104%	< 10 nM	115%	10 to 50 nM	4.74
COc1c(OC[C@H](O)CN2CC3CCC(C2)O3)ccc2c1N=C(NC(=O)c1cnc(N)nc1)N1CCN=C21 [Example 28, 2-Amino-N-(8-{[(2R)-2-hydroxy-3-(8-oxa-3-azabicyclo[3.2.1]oct-3-yl)propyl]oxy}-7-methoxy-2,3-dihydroimidazo[1,2-c]quinazolin-5-yl)pyrimidine-5-carboxamide dihydrochloride]	102%	< 10 nM	102%	< 10 nM	–
COc1c(OC[C@H](O)CN2CC3CCC(C2)O3)ccc2c1N=C(NC(=O)c1cccnc1)N1CCN=C21 [Example 5, N-(8-{[(2R)-2-hydroxy-3-(8-oxa-3-azabicyclo[3.2.1]oct-3-yl)propyl]oxy}-7-methoxy-2,3-dihydroimidazo[1,2-c]quinazolin-5-yl)pyridine-3-carboxamide]	101%	< 10 nM	104%	10 to 50 nM	3.68
COc1c(OC[C@@H](O)CN2CCOCC2)ccc2c1N=C(NC(=O)c1cccnc1)N1CCN=C21 [Example 3, N-(8-{[(2S)-2-hydroxy-3-(morpholin-4-yl)propyl]oxy}-7-methoxy-2,3-dihydroimidazo[1,2-c]quinazolin-5-yl)pyridine-3-carboxamide]	103%	–	92.9%	–	–
